Results on 19 molecules are retold here after ChEMBL document CHEMBL1201862, “PubChem BioAssay data set” (2004).

Molecules are shown by their SMILES.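 Growth conditions: 96-well plates. Treatment: test compound, 48 hours, 5 concentrations. Analysis: linear interpolation between bracketing concentrations; unreached endpoints set to highest concentration. GI50 is the concentration that inhibits growth by half.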 The source made the active and inactive calls. Cut-off read from the data, not from the text of the source: active = GI50 up to about 1.1 µM and inactive = higher.

Among the test systems are DMS-114; DLD-1; LXFL 529; HOP-18; DMS-273; M19-MEL; XF498; KM-20L2; RXF 631.
Holding throughout (assay): NCI tumour cell line growth inhibition, 48 h

For the molecule `N=c1n(CC(=O)NC23CC4CC(CC(C4)C2)C3)c2ccccc2n1CC(=O)NC12CC3CC(CC(C3)C1)C2`, the GI50 was 1.93 µM (inactive) in the experiment on DMS-114; 1.9 µM (inactive) in the experiment on DLD-1; 2.04 µM (inactive) in the experiment with LXFL 529; 2.03 µM (inactive) in the experiment with HOP-18; 1.83 µM (inactive) with DMS-273; 1.72 µM (inactive) with M19-MEL. Moreover, the GI50 with XF498 was 1.52 µM (inactive); in the experiment with KM-20L2, 1.81 µM (inactive).
Regarding `O=P1(c2ccccc2)CCCCC1`, the GI50 with DMS-114 is > 100 µM (inactive); in the experiment with DLD-1, > 100 µM (inactive); with LXFL 529, > 100 µM (inactive); in the experiment with HOP-18 it was > 100 µM (inactive); with DMS-273 it was > 100 µM (inactive); in the experiment on XF498, < 0.01 µM (active). For the same molecule, the GI50 in the experiment with KM-20L2 is > 100 µM (inactive).
For `CS(=O)(=O)NNS(=O)(=O)c1ccc(Br)cc1`, the GI50 in the experiment with DMS-114, in the experiment on DLD-1, with LXFL 529, with HOP-18, in the experiment with DMS-273 and with M19-MEL was > 100 µM (inactive) in each case. For the same molecule, the GI50 with XF498 and in the experiment with KM-20L2 was > 100 µM (inactive) in each case.
On to `CC1CC#CCOC(=O)CCCC1=O` (stereo not drawn), for which the GI50 in the experiment with DMS-114, in the experiment on DLD-1, with LXFL 529, in the experiment on HOP-18, in the experiment on DMS-273 and in the experiment with M19-MEL was > 100 µM (inactive) throughout. Moreover, the GI50 in the experiment with XF498 and with KM-20L2 was > 100 µM (inactive) each time.
With `COc1cc(C2c3cc4c(cc3[C@@H](Nc3ccc(N(C)C)cc3)[C@H]3COC(=O)C23)OCO4)cc(OC)c1O` (stereo partly drawn), the GI50 in the experiment on DMS-114 was 0.42 µM (active); in the experiment on DLD-1, 1.73 µM (inactive); in the experiment with LXFL 529, 2.15 µM (inactive); in the experiment with HOP-18 it was 1.85 µM (inactive); with DMS-273, 0.116 µM (active); in the experiment on M19-MEL, 0.839 µM (active). Also, the GI50 is 0.687 µM (active) in the experiment on XF498 and 0.708 µM (active) with KM-20L2.
As for `Cc1cccc(O)c(=O)c1`, the GI50 in the experiment on DMS-114 is 5.92 µM (inactive); in the experiment with DLD-1, 24.1 µM (inactive); in the experiment on LXFL 529, 29.9 µM (inactive); in the experiment with HOP-18, > 100 µM (inactive); in the experiment on DMS-273, 7.41 µM (inactive); with M19-MEL it was 43.5 µM (inactive). The GI50 in the experiment on KM-20L2 is 22.8 µM (inactive).
As for `CCOC(=O)c1ccc(-n2c(SCC)nc3sc(C)c(C)c3c2=O)cc1`, the GI50 in the experiment on DMS-114, in the experiment on DLD-1, in the experiment with HOP-18, in the experiment with DMS-273, with XF498 and with KM-20L2 was > 100 µM (inactive) in each case.
In the case of `COC1=CC(=O)c2c(ccc3ncnc(N)c23)C1=O`, the GI50 is 1.77 µM (inactive) in the experiment on DMS-114; 2.08 µM (inactive) with DLD-1; 1.75 µM (inactive) in the experiment on LXFL 529; 4.82 µM (inactive) in the experiment on RXF 631; 3.32 µM (inactive) in the experiment on DMS-273; 1.69 µM (inactive) with M19-MEL. The GI50 in the experiment on KM-20L2 was 18.8 µM (inactive).
As to `CC1(C)CCCC2(C)[C@@H]1CC[C@@]13CC(=O)[C@@](C)(CC[C@@H]21)C3` (stereo partly drawn), the GI50 in the experiment on DMS-114 was 46 µM (inactive); with DLD-1, > 100 µM (inactive); in the experiment on LXFL 529, 80.2 µM (inactive); in the experiment on RXF 631, 78.3 µM (inactive); in the experiment on DMS-273, 55.6 µM (inactive); in the experiment with M19-MEL it was 31.5 µM (inactive). Besides, in the experiment with KM-20L2, the GI50 is 72.3 µM (inactive).
As to `COc1ccc(NC(=O)C2C(=O)N(c3ccc(OC)cc3)C(=O)/C2=N\NC(N)=O)cc1` (stereo not drawn), the GI50 with DMS-114 is 63.7 µM (inactive); in the experiment on LXFL 529, 39.9 µM (inactive); with HOP-18, 21.2 µM (inactive); in the experiment on DMS-273 it was 43.6 µM (inactive); with KM-20L2, 49.5 µM (inactive).
`O=c1c2cc(Br)cc(Br)c2nc(CCCl)n1-c1ccc(O)c([N+](=O)[O-])c1`: the GI50 in the experiment on DMS-114 is 19.1 µM (inactive); in the experiment on DLD-1, 18.9 µM (inactive); with LXFL 529 it was 16.1 µM (inactive); with HOP-18 it was 16.7 µM (inactive); in the experiment with DMS-273, 21.5 µM (inactive); in the experiment with M19-MEL it was 15.9 µM (inactive).
Turning to `Cc1cc(C)c(C(=O)c2no[n+]([O-])c2C(=O)c2c(C)cc(C)c(Br)c2C)c(C)c1Br`, the GI50 in the experiment with DMS-114 was 10.8 µM (inactive); in the experiment on DLD-1 it was 14.2 µM (inactive); in the experiment on LXFL 529 it was 11.2 µM (inactive); in the experiment on RXF 631, 13.6 µM (inactive); in the experiment on DMS-273 it was 18.5 µM (inactive); in the experiment with M19-MEL, 12.6 µM (inactive). Further, the GI50 in the experiment with KM-20L2 was 16.2 µM (inactive).
Consider `COc1cc2ccnc(-c3c4ccccc4c(N)c4c(OC)c(OC)ccc34)c2cc1OC`, for which the GI50 with DMS-114 is 2.59 µM (inactive); in the experiment on DLD-1 it was 3.04 µM (inactive); in the experiment on LXFL 529, 3.6 µM (inactive); in the experiment with DMS-273, 1.53 µM (inactive); in the experiment with M19-MEL, 3.87 µM (inactive); in the experiment with XF498, 2.64 µM (inactive).
In the case of `O=C1/C(=C/c2ccc3c(c2)OCCO3)CCC/C1=C\c1ccc2c(c1)OCCO2`, the GI50 in the experiment with DLD-1 was 15.8 µM (inactive); in the experiment with LXFL 529, 37.5 µM (inactive); in the experiment on HOP-18 it was 23.9 µM (inactive); in the experiment on DMS-273 it was 8.99 µM (inactive); in the experiment on M19-MEL, 18.2 µM (inactive); in the experiment with KM-20L2, 10.8 µM (inactive).
As to `OC12c3ccccc3C1(N1CCOCC1)CCCCC21OCCCO1` (stereo not drawn), the GI50 in the experiment on DMS-114, in the experiment on DLD-1, in the experiment on LXFL 529, in the experiment with HOP-18, with DMS-273 and with KM-20L2 was > 100 µM (inactive) each time.
Regarding `C[N+](C)=c1[nH]c2ccccc2[nH]1`, the GI50 with DMS-114, in the experiment on DLD-1, in the experiment on LXFL 529, in the experiment with HOP-18, in the experiment with DMS-273 and with M19-MEL was > 100 µM (inactive) in each case. Further, the GI50 in the experiment on KM-20L2 is > 100 µM (inactive).
In the case of `N=C(CC(=O)Nc1ccc(Cl)cc1)Nc1ccccc1`, the GI50 in the experiment on DLD-1, in the experiment with LXFL 529, with DMS-273, in the experiment on M19-MEL, in the experiment on XF498 and in the experiment with KM-20L2 was > 100 µM (inactive) in each case.
As for `O=C(O)c1ccc2c(c1)C(=O)N(c1ccc(S(=O)(=O)c3ccc(N4C(=O)c5ccc(C(=O)O)cc5C4=O)cc3)cc1)C2=O`, the GI50 in the experiment on DMS-114, with LXFL 529, with DMS-273, in the experiment on M19-MEL, with XF498 and in the experiment on KM-20L2 was > 100 µM (inactive) throughout.
On to `CCOc1ccccc1NC(=O)CSc1nnc(Cc2ccccc2)o1`, for which the GI50 was 17.6 µM (inactive) in the experiment on DMS-114; 23.4 µM (inactive) in the experiment on DLD-1; 16.6 µM (inactive) in the experiment on LXFL 529; 20.4 µM (inactive) in the experiment with HOP-18; 22.7 µM (inactive) with DMS-273; 34.5 µM (inactive) in the experiment with M19-MEL. The GI50 in the experiment with KM-20L2 is 38.1 µM (inactive).
